The values that follow come from patent US8883449B2, “Single-chain insulin” (Novo Nordisk A/S, priority 2003, dated 2014).

Read-outs that look alike come from different tables or passages of the source. Bridges are numbered along the chain shown (N, C = ends). Where no end group is shown, it is not given here.

This test concerns the target human insulin receptor (Homo sapiens, UniProt P06213). Format: binding. As to the method: Alternatively the insulin receptor binding was tested in a hIRBHK membrane assay as follows: • Binding of [^125I]-human insulin to membrane-associated recombinant human insulin receptor isoform A (hIR-A) • Reagents: • ^125I-Insulin: Novo Nordisk A/S, mono ^125I-(TyrA14) human insulin • Human Insulin: Novo Nordisk A/S, • Human serum albumin: Dade Behring, ORHA 194 C30, lot 455077 • Plastic ware: Packard OptiPlate™-96, #6,005,290 • Scintillant: Amersham Biosciences, WGA coated PVT microspheres, # RPNQ0001 • Cells: BHK tk^− ts13 cells expressing recombinant human insulin receptor isoform A (hIR12-14).
Extraction of membrane-associated insulin receptors: BHK cells from a ten-layer cell factory were harvested and homogenised in 25 ml of ice-cold buffer (25 mM HEPES pH 7.4, 2.5 mM CaCl2, 1 mM MgCl2, 250 mg/l bacitracin, 0.1 mM Pefablock). The homogenate was layered carefully on 41% sucrose cushions, centrifuged in the ultracentrifuge at 95,000×g for 75 minutes in a Beckman SW28 rotor at 4° C. The plasma membranes were collected from the top of the sucrose cushion, diluted 1:4 with buffer and centrifuged at 40,000×g for 45 min in a Beckman SW28 rotor. The pellets were suspended in buffer (25 mM HEPES pH 7.4, 2.5 mM CaCl2, 1 mM MgCl2, 250 mg/l bacitracin, 0.1 mM Pefablock) and stored at −80° C.
Radioligand binding to membrane-associated insulin receptors was performed in duplicate in 96-well OptiPlates. Membrane protein was incubated for 150 minutes at 25° C. with […] [^125I-Tyr^A14]-human insulin in a total volume of […] assay buffer (50 mM HEPES, 150 mM NaCl, 5 mM MgSO4, 0.01% Triton X-100, 0.1% HSA, Complete™ EDTA-free protease inhibitors) and increasing concentrations of human insulin or insulin analogues (typically between 0.01 and 300 nM). The assay was terminated by addition of 50 μl of a suspension of WGA-coated PVT microspheres (20 mg/ml). Following 5 minutes of slight agitation, the plate was centrifuged at 1500 RPM for 6 minutes, and bound radioactivity quantified by counting in a Packard TopCount NXT after a delay of 60 minutes. […]

[1] abbreviates: acylated single-chain insulins of Examples 2-4.

Sequence of human insulin receptor (P06213 28-746 isoform P06213-2 limits assumed): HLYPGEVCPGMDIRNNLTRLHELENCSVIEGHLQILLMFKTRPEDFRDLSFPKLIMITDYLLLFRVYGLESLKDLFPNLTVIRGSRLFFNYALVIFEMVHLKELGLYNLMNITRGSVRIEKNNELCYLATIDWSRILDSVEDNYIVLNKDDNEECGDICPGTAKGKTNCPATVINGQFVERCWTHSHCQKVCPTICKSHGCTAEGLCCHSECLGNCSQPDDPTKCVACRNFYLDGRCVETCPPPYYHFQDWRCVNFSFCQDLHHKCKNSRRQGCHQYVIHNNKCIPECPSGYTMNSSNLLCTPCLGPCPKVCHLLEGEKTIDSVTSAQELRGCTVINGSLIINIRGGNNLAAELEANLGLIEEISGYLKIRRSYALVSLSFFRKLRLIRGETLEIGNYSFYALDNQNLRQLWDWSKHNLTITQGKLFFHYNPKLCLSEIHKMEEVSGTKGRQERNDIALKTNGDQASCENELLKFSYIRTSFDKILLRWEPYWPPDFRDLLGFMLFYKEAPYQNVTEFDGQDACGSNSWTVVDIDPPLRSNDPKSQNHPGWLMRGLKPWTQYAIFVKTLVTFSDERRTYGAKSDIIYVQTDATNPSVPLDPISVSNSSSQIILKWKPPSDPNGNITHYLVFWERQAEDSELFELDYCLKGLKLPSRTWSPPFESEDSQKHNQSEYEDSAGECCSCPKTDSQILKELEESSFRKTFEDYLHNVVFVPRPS
Sequence of human insulin receptor (P06213 763-1382 partner limits assumed): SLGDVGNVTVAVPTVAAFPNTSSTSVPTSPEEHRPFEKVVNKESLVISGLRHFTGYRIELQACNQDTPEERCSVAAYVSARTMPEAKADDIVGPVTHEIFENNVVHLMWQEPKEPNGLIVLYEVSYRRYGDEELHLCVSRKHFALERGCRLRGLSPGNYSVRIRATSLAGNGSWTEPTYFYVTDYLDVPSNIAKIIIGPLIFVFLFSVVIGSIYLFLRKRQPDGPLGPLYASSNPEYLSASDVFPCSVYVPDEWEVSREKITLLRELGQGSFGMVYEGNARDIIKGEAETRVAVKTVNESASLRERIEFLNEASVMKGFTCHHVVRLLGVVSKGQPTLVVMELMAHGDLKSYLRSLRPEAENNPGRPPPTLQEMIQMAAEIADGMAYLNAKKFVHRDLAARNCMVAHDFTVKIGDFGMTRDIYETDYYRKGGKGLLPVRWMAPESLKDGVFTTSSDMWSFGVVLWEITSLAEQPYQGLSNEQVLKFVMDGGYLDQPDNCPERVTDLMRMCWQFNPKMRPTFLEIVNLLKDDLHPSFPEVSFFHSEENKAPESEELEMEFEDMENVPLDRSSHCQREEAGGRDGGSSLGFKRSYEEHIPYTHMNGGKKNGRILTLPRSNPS

Regarding “B(1-29)-B3Q-B29R-TGLGK((eps)hexadecandioyl-γ-L-Glu)GQ-A(1-21)-A 8Q-A21 G Human insulin [Example 4]”, the “IC50 relative to human insulin in %.” value under setting [1] is 0.7%.
Still for that read-out and setting: then “B(1-29)-B3Q-B29R-TGLGK((eps)octadecandioyl)GQ-A(1-21)-A18Q-A21G Human insulin (FVQQHLCGSHLVEALYLVCGERGFFYTPRTGLGK(octadecandioyl)GQGIVEQCCTSICSLYQLEQYCG; disulfide 19-56, 42-47, 7-43) [Example 3]”, with 0.1%.
With `CCCCCCCCCCCCCC(=O)NCCCC[C@@H]1NC(=O)CNC(=O)[C@H](CC(C)C)NC(=O)CNC(=O)[C@H]([C@@H](C)O)NC(=O)[C@H](CCCNC(=N)N)NC(=O)[C@@H]2CCCN2C(=O)[C@H]([C@@H](C)O)NC(=O)[C@H](Cc2ccc(O)cc2)NC(=O)[C@H](Cc2ccccc2)NC(=O)[C@H](Cc2ccccc2)NC(=O)CNC(=O)[C@H](CCCNC(=N)N)NC(=O)[C@H](CCC(=O)O)NC(=O)CNC(=O)[C@@H]2CSSC[C@@H](C(=O)NCC(=O)O)NC(=O)[C@H](Cc3ccc(O)cc3)NC(=O)[C@H](CCC(N)=O)NC(=O)[C@H](CCC(=O)O)NC(=O)[C@H](CC(C)C)NC(=O)[C@H](CCC(N)=O)NC(=O)[C@H](Cc3ccc(O)cc3)NC(=O)[C@H](CC(C)C)NC(=O)[C@H](CO)NC(=O)[C@@H]3CSSC[C@H](NC(=O)[C@H](CCC(N)=O)NC(=O)[C@H](CCC(=O)O)NC(=O)[C@H](C(C)C)NC(=O)[C@H]([C@@H](C)CC)NC(=O)CNC(=O)[C@H](CCC(N)=O)NC(=O)CNC1=O)C(=O)N[C@@H](CSSC[C@H](NC(=O)[C@H](CC(C)C)NC(=O)[C@H](Cc1c[nH]cn1)NC(=O)[C@H](CCC(N)=O)NC(=O)[C@H](CCC(N)=O)NC(=O)[C@@H](NC(=O)[C@@H](N)Cc1ccccc1)C(C)C)C(=O)NCC(=O)N[C@@H](CO)C(=O)N[C@@H](Cc1c[nH]cn1)C(=O)N[C@@H](CC(C)C)C(=O)N[C@@H](C(C)C)C(=O)N[C@@H](CCC(=O)O)C(=O)N[C@@H](C)C(=O)N[C@@H](CC(C)C)C(=O)N[C@@H](Cc1ccc(O)cc1)C(=O)N[C@@H](CC(C)C)C(=O)N[C@@H](C(C)C)C(=O)N2)C(=O)N[C@@H]([C@@H](C)O)C(=O)N[C@@H](CO)C(=O)N[C@@H]([C@@H](C)CC)C(=O)N3` [Example 2, B(1-29)-B3Q-B29R-TGLGK((eps)myristoyl)GQ-A(1-21)-A18Q-A21G Human insulin], the “IC50 relative to human insulin in %.” value was found to be 2%.
